Experimental data as given in US20050112573A1, “Method of detecting toxic substance” (priority 2001, published 2005).

Tested on: yeast genes (level of expressed mRNA)
Test: DNA chip analysis of expressed mRNA of yeast genes after 2 h culture with a toxic chemical substance
Assay type: cell-based, Saccharomyces cerevisiae S288C
Protocol: Yeast (Saccharomyces cerevtisiae S288C (α SUC2mal mel gap2 CUP1)) were cultured at 25° C. on YPD medium (yeast extract 1%, polypepton 2%, glucose 2%). One of toxic chemical substances was added to the cell at logarithmic growth phase, and the cell was further cultured for two hours. Cell was cultured without any chemical substance in the same condition, and was used as control. Concentrations of the chemical substances were defined to inhibit the growth of the yeast but not lead to death.
After the completion of cultivation, the culture was centrifuged to collect the cells. To the cells, sodium acetate buffer (50 mM sodium acetate, 10 mM EDTA, 1% SDS) was added, and the mixture was shaken at 65° C. for five minutes, followed by returning to room temperature, and obtaining the supernatant, which procedure was repeated two times. To the supernatant, ½ amount of a solution of phenol/chloroform was added, and the mixture was centrifuged to give a supernatant, which was added with an equal amount of chloroform, and the mixture was centrifuged to give a supernatant. To the supernatant, an equal amount of isopropanol containing 0.3 M sodium acetate was added, and the mixture was allowed to stand at room temperature for 30 minutes, after which the mixture was centrifuged to give a sediment of the whole RNAs. Seventy % ethanol was added to the sediment, and the mixture was again centrifuged to give a sediment, which was then dried and dissolved in water. mRNA was isolated from the whole RNAs as followings. In view of the fact that a poly A chain is attached to the 3′ terminus of mRNA, a polynucleotide having a poly T structure which was immobilized on the surface of latex beads was used to trap the mRNA, and then the mRNA was washed and eluted with spine column (Oligotex-dT30<Super>mRNA Purification Kit, Takara). Reverse transcription of the mRNA was conducted with a reverse transcriptase (Super Script II Reverse Transcriptase; catalogue No. 18064-014, GibcoBRL) using fluorescence-labeled nucleotides to give cDNAs that were introduced with Cy3-dUTP or Cy5-dUTP during the reverse transcription.
The labeled cDNAs were dissolved in TE buffer (10 mM Tris-HCl/1 mM EDTA, pH8.0), and the solution was dropped on the DNA chip containing the whole genes of yeast (DNA Chip Research Inc. Japan) so that the cDNAs were hybridized on the DNA chip at 65° C. for over 12 hours. The fluoresces intensity of the DNA chip was read with a scanner, and the ratio relative to the fluorescence intensity resulting from the absence of chemical substance was estimated as the following, which is shown in Tables 1 to 9: [formula]
In the Tables, “Intensity” indicated in the rightmost column is a value of the level of expressed mRNA of each gene in control cells as divided by the average level of the expressions of the whole genes.

γ-hexachlorocyclohexane [(7)]
The level of expressed mRNA in the presence of chemical substance/ (yeast gene YAL053W, ratio to control without chemical): 0.7 | The level of expressed mRNA in the presence of chemical substance/The level of expressed mRNA in the absence of chemical substance (yeast gene YAR010C): 1.9 | The level of expressed mRNA in the presence of chemical substance/The level of expressed mRNA in the absence of chemical substance (yeast gene YBL005W-A): 1.4 | The level of expressed mRNA in the presence of chemical substance/The level of expressed mRNA in the absence of chemical substance (yeast gene YBL041W): 1.6 | The level of expressed mRNA in the presence of chemical substance/The level of expressed mRNA in the absence of chemical substance (yeast gene YBL043W): 1.5 | The level of expressed mRNA in the presence of chemical substance/ (yeast gene YBL048W, ratio to control without chemical substance, 2 h culture): 1.9 | The level of expressed mRNA in the presence of chemical substance/The level of expressed mRNA in the absence of chemical substance (yeast gene YBL078C): 3.1 | The level of expressed mRNA in the presence of chemical substance/ (yeast gene YBL107C, ratio to control without chemical substance, 2 h culture): 2.1 | The level of expressed mRNA in the presence of chemical substance/in the absence of chemical substance (yeast gene YBR036C): 1.3 | The level of expressed mRNA in the presence of chemical substance/The level of expressed mRNA in the absence of chemical substance (yeast gene YBR214W): 1.1 | The level of expressed mRNA in the presence of chemical substance/in the absence of chemical substance (yeast gene YBR298C): 1.7 | The level of expressed mRNA in the presence of chemical substance/The level of expressed mRNA in the absence of chemical substance (yeast gene YCL020W): 1.5 | The level of expressed mRNA in the presence of chemical substance/The level of expressed mRNA in the absence of chemical substance (yeast gene YCL027W): 1.0 | The level of expressed mRNA in the presence of chemical substance/The level of expressed mRNA in the absence of chemical substance (yeast gene YCR004C): 1.4 | The level of expressed mRNA in the presence of chemical substance/The level of expressed mRNA in the absence of chemical substance (yeast gene YCR071C): 1.4 | The level of expressed mRNA in the presence of chemical substance/The level of expressed mRNA in the absence of chemical substance (yeast gene YCR088W): 1.2 | The level of expressed mRNA in the presence of chemical substance/The level of expressed mRNA in the absence of chemical substance (yeast gene YDL008W): 2.0 | The level of expressed mRNA in the presence of chemical substance/ (yeast gene YDL072C, ratio to control without chemical): 1.8 | The level of expressed mRNA in the presence of chemical substance/in the absence of chemical substance (yeast gene YDL078C): 1.7 | The level of expressed mRNA in the presence of chemical substance/ (yeast gene YDL204W, ratio to control without chemical): 3.2 | The level of expressed mRNA in the presence of chemical substance/in the absence of chemical substance (yeast gene YDL215C): 1.9 | The level of expressed mRNA in the presence of chemical substance/ (yeast gene YDL222C, ratio to control without chemical): 1.0 | The level of expressed mRNA in the presence of chemical substance/The level of expressed mRNA in the absence of chemical substance (yeast gene YDL238C): 1.4 | The level of expressed mRNA in the presence of chemical substance/The level of expressed mRNA in the absence of chemical substance (yeast gene YDR055W): 1.5 | The level of expressed mRNA in the presence of chemical substance/The level of expressed mRNA in the absence of chemical substance (yeast gene YDR084C): 0.9 | The level of expressed mRNA in the presence of chemical substance/The level of expressed mRNA in the absence of chemical substance (yeast gene YDR085C): 4.1 | The level of expressed mRNA in the presence of chemical substance/The level of expressed mRNA in the absence of chemical substance (yeast gene YDR104C): 1.0 | The level of expressed mRNA in the presence of chemical substance/The level of expressed mRNA in the absence of chemical substance (yeast gene YDR115W): 1.6 | The level of expressed mRNA in the presence of chemical substance/The level of expressed mRNA in the absence of chemical substance (yeast gene YDR259C): 2.8 | The level of expressed mRNA in the presence of chemical substance/in the absence of chemical substance (yeast gene YDR297W): 0.6 | The level of expressed mRNA in the presence of chemical substance/The level of expressed mRNA in the absence of chemical substance (yeast gene YDR315C): 1.4 | The level of expressed mRNA in the presence of chemical substance/ (yeast gene YDR330W, ratio to control without chemical substance, 2 h culture): 1.3 | The level of expressed mRNA in the presence of chemical substance/The level of expressed mRNA in the absence of chemical substance (yeast gene YDR358W): 2.8 | The level of expressed mRNA in the presence of chemical substance/in the absence of chemical substance (yeast gene YDR387C): 1.3 | The level of expressed mRNA in the presence of chemical substance/The level of expressed mRNA in the absence of chemical substance (yeast gene YDR388W): 1.1 | The level of expressed mRNA in the presence of chemical substance/ (yeast gene YDR411C, ratio to control without chemical substance, 2 h culture): 2.0 | The level of expressed mRNA in the presence of chemical substance/The level of expressed mRNA in the absence of chemical substance (yeast gene YDR432W): 0.5 | The level of expressed mRNA in the presence of chemical substance/The level of expressed mRNA in the absence of chemical substance (yeast gene YDR481C): 0.7 | The level of expressed mRNA in the presence of chemical substance/The level of expressed mRNA in the absence of chemical substance (yeast gene YDR510W): 1.6 | The level of expressed mRNA in the presence of chemical substance/ (yeast gene YDR511W, ratio to control without chemical substance, 2 h culture): 1.5 | The level of expressed mRNA in the presence of chemical substance/ (yeast gene YDR545W, ratio to control without chemical substance, 2 h culture): 1.2 | The level of expressed mRNA in the presence of chemical substance/ (yeast gene YEL001C, ratio to control without chemical): 1.1 | The level of expressed mRNA in the presence of chemical substance/The level of expressed mRNA in the absence of chemical substance (yeast gene YEL042W): 0.5 | The level of expressed mRNA in the presence of chemical substance/The level of expressed mRNA in the absence of chemical substance (yeast gene YEL066W): 1.8 | The level of expressed mRNA in the presence of chemical substance/ (yeast gene YER004W, ratio to control without chemical substance, 2 h culture): 1.4 | The level of expressed mRNA in the presence of chemical substance/ (yeast gene YER035W, ratio to control without chemical substance, 2 h culture): 1.9 | The level of expressed mRNA in the presence of chemical substance/The level of expressed mRNA in the absence of chemical substance (yeast gene YER039C): 1.3 | The level of expressed mRNA in the presence of chemical substance/ (yeast gene YER079W, ratio to control without chemical substance, 2 h culture): 1.9 | The level of expressed mRNA in the presence of chemical substance/ (yeast gene YER106W, ratio to control without chemical): 1.0 | The level of expressed mRNA in the presence of chemical substance/The level of expressed mRNA in the absence of chemical substance (yeast gene YER107C): 1.0 | The level of expressed mRNA in the presence of chemical substance/The level of expressed mRNA in the absence of chemical substance (yeast gene YER130C): 1.5 | The level of expressed mRNA in the presence of chemical substance/ (yeast gene YER158C, ratio to control without chemical substance, 2 h culture): 1.2 | The level of expressed mRNA in the presence of chemical substance/ (yeast gene YER163C, ratio to control without chemical substance, 2 h culture): 1.5 | The level of expressed mRNA in the presence of chemical substance/ (yeast gene YER175C, ratio to control without chemical substance, 2 h culture): 2.3 | The level of expressed mRNA in the presence of chemical substance/ (yeast gene YFL006W, ratio to control without chemical substance, 2 h culture): 1.0
